{
  "source": "patent US20210388029A1",
  "about": "“CYTOPLASMIC TRANSDUCTION PEPTIDE AND INTRACELLULAR MESSENGER COMPRISING SAME” (priority 2016, published 2021)",
  "system": "HeLa cells",
  "assay": "Cell membrane penetration activity in HeLa cells, immunostaining / confocal laser scanning microscope",
  "type": "cell-based",
  "conditions": "3 hours; for fluorescence signal versus concentration (zinc finger domain peptides): FITC-conjugated",
  "procedure": "HeLa cells were seeded into a 12-well plate having glass at a density of 1×10^5 cells/well, and then cultured for 24 hours to attach the cells to the glass. Then, cells were treated with FITC-NC peptides at […] concentration for 3 hours. After 3 hours, the cells were washed three times with PBS, the cells were fixed with 3.7% formaldehyde for 20 minutes, and the cells were treated with PBS containing 0.2% Triton X-100 to increase the cell membrane penetration activity. Then, the cells were blocked with 3% BSA for 1 hour, reacted with lamin A/C antibody (Sigma-Aldrich, USA) at room temperature for 2 hours, and washed three times with PBS. Next, the cells were treated with Cy3-conjugated secondary antibody (Jackson ImmunoResearch, USA) at room temperature for 1 hour, washed twice with PBS, and then stained with DAPI (4′,6-diamidino-2-phenylindol) for 10 minutes. The HeLa cell-attached glass was removed and placed on a slide glass.\nThe HeLa cells were seeded into a 12-well plate containing glass at a density of 1×10^5 cells/well, and then cultured for 24 hours to attach the cells to the glass. Thereafter, the FITC-NC peptide, the trans-activating transcriptional activator peptide (FITC-Tat peptide), the FITC-MA11 peptide, the protein transduction domain-ys peptide (FITC-PTD-ys peptide), the translocation motif peptide (FITC-TLM peptide) and FITC-TD1 peptide were treated with the HeLa cells for 3 hours. After 3 hours, the cells were washed 3 times with PBS and the cells were fixed with 3.7% formaldehyde for 20 minutes. The cells were treated with PBS containing 0.2% Triton X-100 to increase cell membrane penetration activity and blocked with 3% BSA for 1 hour. Then, the cells were reacted with tubulin antibody (Santa Cruz Biotechnology, USA) at room temperature for 2 hours and washed three times with PBS. The cells were treated with Cy3 secondary antibody. They were reacted at room temperature for 1 hour, washed twice with PBS, and stained with DAPI for 10 minutes. The HeLa cell-attached glass was removed and placed on a slide glass.\nFurther, in order to identify a change in cell membrane penetration activity by FITC-NC peptide, the HeLa cells were treated with hexapeptide, FITC-hexapeptide, FITC-NC-hexapeptide, FITC-13NC35 peptide and FITC-29NC50 peptide for 3 hours in the same manner as above and observed with a confocal laser scanning microscope. Meanwhile, the amino acid sequences of the hexapeptide, PTD-ys peptide, TLM peptide, TD1 peptide, NC-hexapeptide, 13NC35 peptide and 29NC50 peptide used are shown in Table 5 below.",
  "note": "No end group written: not given here.",
  "data": [
    {"substance": "FITC-TLM peptide: translocation motif peptide, SEQ ID NO: 7 PLSSIFSRIGDP, FITC-conjugated [reference compound]", "values": [
      {"measurement": "cell membrane penetration (confocal)", "setting": "20 μM", "value": "hardly penetrable to the cell membrane"}
    ]},
    {"substance": "hexapeptide: polypeptide cargo, SEQ ID NO: 5 EEMQRR (also: FITC label, place not given here)", "values": [
      {"measurement": "cell membrane penetration of polypeptide cargo (confocal)", "setting": "FITC-labelled", "value": "did not penetrate the cell membrane"}
    ]},
    {"substance": "13NC35 peptide: 13th to 35th amino acid of HIV-NC with first zinc finger domain, SEQ ID NO: 10 VKCFNCGKEGHTARNCRAPRKKG (cysteine pairing not given here; also: FITC label, place not given here)", "values": [
      {"measurement": "fluorescence signal versus concentration (zinc finger domain peptides)", "value": "fluorescence signals were increased in proportion to the concentration"}
    ]},
    {"substance": "29NC50 peptide: 29th to 50th amino acid of HIV-NC with second zinc finger domain, SEQ ID NO: 11 RAPRKKGCWKCGKEGHQMKDCT (cysteine pairing not given here; also: FITC label, place not given here)", "values": [
      {"measurement": "fluorescence signal versus concentration (zinc finger domain peptides)", "value": "fluorescence signals were increased in proportion to the concentration"}
    ]}
  ]
}
